# Experimental data from US20150246058A1, “COMPOSITION FOR PREVENTING HAIR LOSS AND ACCELERATING HAIR GROWTH” (RNS CO., LTD., priority 2012, published 2015).
# Test system: 5α-reductase
# Assay: 5α-reductase inhibitory efficacy: DHT produced in testosterone-stimulated dermal papilla cells (DHT ELISA)
# Assay type: cell-based
# Conditions: 50 nM testosterone, 24 hours, produced DHT relative to control
# Procedure: After seeding 1 ml of dermal papilla cells (DPCs) by 5×10^5/ml into each well of a 24-well plate, then incubating the same for 24 hours, each of the reaction products prepared according to procedures described in Examples 1 to 72 was added in amounts of 50 μg/ml, 10 μg/ml and 0 μg/ml, respectively, to individual wells. After 1 hour, the wells were subjected to stimulation using 50 nM testosterone (DMSO dissolved). The supernatant was discarded 24 hours after culturing, to thus obtain DPc pellets. A content of dihydrotestosterone (DHT) (DB52021, Hamburg, Germany) was determined by means of enzyme-linked immune-sorbent assay. DPCs cell pellets were seeded in an amount of 100 μL into each of Dihydrotestosterone (DHT) ELISA microtiter strips coated with rabbit anti-DHT antibody, 25 μL of DHT antiserum was seeded in every well, and subjected to a reaction at 2 to 8° C. for 15 to 20 hours, followed by washing the same three times. Thereafter, 100 μL of DHT-HRP enzyme conjugate was seeded in every well and reacted on a shaker at room temperature for 30 minutes, followed by washing the same three times. Furthermore, 100 μL of substrate was seeded in every well and reacted on a shaker at room temperature for 20 to 30 minutes. Then, the product was treated using 100 μL stop solution, and subjected to measurement of absorbance at 450 nm to express an amount of produced DHT by the absorbance (three times repeated). An amount of produced DHT relative to a control was calculated in terms of an inhibitory rate (%), and results thereof are shown in Table 3 below.
smiles,measurement,setting,value
"CC1(C)CC[C@]2(C)CC[C@]3(C)C(=CC[C@@H]4[C@@]5(C)CC[C@H](O)C(C)(C)[C@@H]5CC[C@]43C)[C@@H]2C1 [Compound in Example 1, β-amyrin]",5α-reductase inhibitory rate (%),sample concentration 10 μg/ml,15%
same,5α-reductase inhibitory rate (%),sample concentration 50 μg/ml,28%
"CC(=O)O[C@H]1CC[C@]2(C)[C@H]3CC=C4[C@@H]5CC(C)(C)CC[C@]5(C)CC[C@@]4(C)[C@]3(C)CC[C@H]2C1(C)C [Compound in Example 2, β-amyrin acetate]",5α-reductase inhibitory rate (%),sample concentration 10 μg/ml,21%
same,5α-reductase inhibitory rate (%),sample concentration 50 μg/ml,34%
"CC(C)=CC(=O)OC1CCC2(C)C(CCC3(C)C2CC=C2C4CC(C)(C)CCC4(C)CCC23C)C1(C)C (stereo not drawn) [Compound in Example 3, β-amyrin 3-methyl-2-butenate]",5α-reductase inhibitory rate (%),sample concentration 10 μg/ml,28%
same,5α-reductase inhibitory rate (%),sample concentration 50 μg/ml,41%
"CCCCC(CC)C(=O)OC1CCC2(C)C(CCC3(C)C2CC=C2C4CC(C)(C)CCC4(C)CCC23C)C1(C)C (stereo not drawn) [Compound in Example 4, β-amyrin 2-ethylhexanoate]",5α-reductase inhibitory rate (%),sample concentration 10 μg/ml,36%
same,5α-reductase inhibitory rate (%),sample concentration 50 μg/ml,54%
"CCCCCCCC(=O)OC1CCC2(C)C(CCC3(C)C2CC=C2C4CC(C)(C)CCC4(C)CCC23C)C1(C)C (stereo not drawn) [Compound in Example 5, β-amyrin octanoate]",5α-reductase inhibitory rate (%),sample concentration 10 μg/ml,41%
same,5α-reductase inhibitory rate (%),sample concentration 50 μg/ml,57%
"CCCCCCCCCCCCCCCC(=O)O[C@H]1CC[C@]2(C)[C@H]3CC=C4[C@@H]5CC(C)(C)CC[C@]5(C)CC[C@@]4(C)[C@]3(C)CC[C@H]2C1(C)C [Compound in Example 7, β-amyrin palmitate]",5α-reductase inhibitory rate (%),sample concentration 10 μg/ml,53%
same,5α-reductase inhibitory rate (%),sample concentration 50 μg/ml,67%
"C[C@H]1[C@H](C)CC[C@]2(C)CC[C@]3(C)C(=CC[C@@H]4[C@@]5(C)CC[C@H](O)C(C)(C)[C@@H]5CC[C@]43C)[C@H]12 [Compound in Example 10, α-amyrin]",5α-reductase inhibitory rate (%),sample concentration 10 μg/ml,13%
same,5α-reductase inhibitory rate (%),sample concentration 50 μg/ml,29%
"CC(=O)O[C@H]1CC[C@]2(C)[C@H]3CC=C4[C@@H]5[C@@H](C)[C@H](C)CC[C@]5(C)CC[C@@]4(C)[C@]3(C)CC[C@H]2C1(C)C [Compound in Example 11, α-amyrin acetate]",5α-reductase inhibitory rate (%),sample concentration 10 μg/ml,31%
same,5α-reductase inhibitory rate (%),sample concentration 50 μg/ml,42%
"CCCCCCCC(=O)OC1CCC2(C)C(CCC3(C)C2CC=C2C4C(C)C(C)CCC4(C)CCC23C)C1(C)C (stereo not drawn) [Compound in Example 12, α-amyrin octanoate]",5α-reductase inhibitory rate (%),sample concentration 10 μg/ml,35%
same,5α-reductase inhibitory rate (%),sample concentration 50 μg/ml,49%
"CC[C@H](CC[C@@H](C)[C@H]1CC[C@H]2[C@@H]3CC=C4C[C@@H](O)CC[C@]4(C)[C@H]3CC[C@]12C)C(C)C [Compound in Example 14, β-sitosterol]",5α-reductase inhibitory rate (%),sample concentration 10 μg/ml,11%
same,5α-reductase inhibitory rate (%),sample concentration 50 μg/ml,26%
"CC[C@H](CC[C@@H](C)[C@H]1CC[C@H]2[C@@H]3CC=C4C[C@@H](OC(C)=O)CC[C@]4(C)[C@H]3CC[C@]12C)C(C)C [Compound in Example 15, β-sitosterol acetate]",5α-reductase inhibitory rate (%),sample concentration 10 μg/ml,21%
same,5α-reductase inhibitory rate (%),sample concentration 50 μg/ml,29%
"CCCCCCCC(=O)OC1CCC2(C)C(=CCC3C2CCC2(C)C(C(C)CCC(CC)C(C)C)CCC32)C1 (stereo not drawn) [Compound in Example 16, β-sitosterol octanoate]",5α-reductase inhibitory rate (%),sample concentration 10 μg/ml,28%
same,5α-reductase inhibitory rate (%),sample concentration 50 μg/ml,39%
"CCCCCCCCCCCCCCCCCC(=O)O[C@H]1CC[C@@]2(C)C(=CC[C@H]3[C@@H]4CC[C@H]([C@H](C)CC[C@@H](CC)C(C)C)[C@@]4(C)CC[C@@H]32)C1 [Compound in Example 17, β-sitosterol stearate]",5α-reductase inhibitory rate (%),sample concentration 10 μg/ml,31%
same,5α-reductase inhibitory rate (%),sample concentration 50 μg/ml,42%
"C[C@H]1[C@H](C)CC[C@]2(C(=O)O)CC[C@]3(C)C(=CC[C@@H]4[C@@]5(C)CC[C@H](O)C(C)(C)[C@@H]5CC[C@]43C)[C@H]12 [Compound in Example 18, ursolic acid]",5α-reductase inhibitory rate (%),sample concentration 10 μg/ml,16%
same,5α-reductase inhibitory rate (%),sample concentration 50 μg/ml,29%
"CCCCCCCC(=O)OC1CCC2(C)C(CCC3(C)C2CC=C2C4C(C)C(C)CCC4(C(=O)O)CCC23C)C1(C)C (stereo not drawn) [Compound in Example 20, ursolic acid octanoate]",5α-reductase inhibitory rate (%),sample concentration 10 μg/ml,31%
same,5α-reductase inhibitory rate (%),sample concentration 50 μg/ml,46%
"CC1(C)CC[C@]2(C(=O)O)CC[C@]3(C)C(=CC[C@@H]4[C@@]5(C)CC[C@H](O)C(C)(C)[C@@H]5CC[C@]43C)[C@@H]2C1 [Compound in Example 22, oleanolic acid]",5α-reductase inhibitory rate (%),sample concentration 10 μg/ml,7%
same,5α-reductase inhibitory rate (%),sample concentration 50 μg/ml,16%
"CCCCCCCC(=O)OC1CCC2(C)C(CCC3(C)C2CC=C2C4CC(C)(C)CCC4(C(=O)O)CCC23C)C1(C)C (stereo not drawn) [Compound in Example 24, oleanolic acid octanoate]",5α-reductase inhibitory rate (%),sample concentration 10 μg/ml,21%
same,5α-reductase inhibitory rate (%),sample concentration 50 μg/ml,39%
"CC1(C)CC[C@]2(C)CC[C@]3(C)C(=CC[C@@H]4[C@@]5(C)CC[C@@H](O)[C@](C)(C(=O)O)[C@@H]5CC[C@]43C)[C@@H]2C1 [Compound in Example 26, α-boswellic acid]",5α-reductase inhibitory rate (%),sample concentration 10 μg/ml,10%
same,5α-reductase inhibitory rate (%),sample concentration 50 μg/ml,19%
"CC(=O)OC1CCC2(C)C(CCC3(C)C2CC=C2C4CC(C)(C)CCC4(C)CCC23C)C1(C)C(=O)O (stereo not drawn) [Compound in Example 27, α-boswellic acid acetate]",5α-reductase inhibitory rate (%),sample concentration 10 μg/ml,21%
same,5α-reductase inhibitory rate (%),sample concentration 50 μg/ml,29%
"C[C@H]1[C@H](C)CC[C@]2(C)CC[C@]3(C)C(=CC[C@@H]4[C@@]5(C)CC[C@@H](O)[C@](C)(C(=O)O)[C@@H]5CC[C@]43C)[C@H]12 [Compound in Example 29, β-boswellic acid]",5α-reductase inhibitory rate (%),sample concentration 10 μg/ml,11%
same,5α-reductase inhibitory rate (%),sample concentration 50 μg/ml,23%
"CC(=O)OC1CCC2(C)C(CCC3(C)C2CC=C2C4C(C)C(C)CCC4(C)CCC23C)C1(C)C(=O)O (stereo not drawn) [Compound in Example 30, β-boswellic acid acetate]",5α-reductase inhibitory rate (%),sample concentration 10 μg/ml,14%
same,5α-reductase inhibitory rate (%),sample concentration 50 μg/ml,29%
"C=C(C)[C@@H]1CC[C@]2(C(=O)O)CC[C@]3(C)[C@H](CC[C@@H]4[C@@]5(C)CC[C@H](O)C(C)(C)[C@@H]5CC[C@]43C)[C@@H]12 [Compound in Example 32, betulinic acid]",5α-reductase inhibitory rate (%),sample concentration 10 μg/ml,9%
same,5α-reductase inhibitory rate (%),sample concentration 50 μg/ml,17%
"CC1(C)[C@@H](O)CC[C@]2(C)[C@H]3C(=O)C=C4[C@@H]5C[C@@](C)(C(=O)O)CC[C@]5(C)CC[C@@]4(C)[C@]3(C)CC[C@@H]12 [Compound in Example 34, glycyrrhetinic acid]",5α-reductase inhibitory rate (%),sample concentration 10 μg/ml,6%
same,5α-reductase inhibitory rate (%),sample concentration 50 μg/ml,18%
"C[C@]12CC[C@H](O)CC1=CC[C@@H]1[C@@H]2CC[C@]2(C)C(=O)CC[C@@H]12 [Compound in Example 36, dihydroandrosterone]",5α-reductase inhibitory rate (%),sample concentration 10 μg/ml,9%
same,5α-reductase inhibitory rate (%),sample concentration 50 μg/ml,28%
"CC(C)=CCC[C@@H](C)[C@H]1CC[C@H]2[C@@H]3CC=C4C[C@@H](O)CC[C@]4(C)[C@H]3CC[C@]12C [Compound in Example 38, desmosterol]",5α-reductase inhibitory rate (%),sample concentration 10 μg/ml,12%
same,5α-reductase inhibitory rate (%),sample concentration 50 μg/ml,31%
"CC(C)CCC[C@@H](C)[C@H]1CC[C@H]2[C@@H]3CC=C4C[C@@H](O)CC[C@]4(C)[C@H]3CC[C@]12C [Compound in Example 40, cholesterol]",5α-reductase inhibitory rate (%),sample concentration 10 μg/ml,15%
same,5α-reductase inhibitory rate (%),sample concentration 50 μg/ml,17%
"CCCCCCCCCCCCCCCCCC(=O)O[C@H]1CC[C@@]2(C)C(=CC[C@H]3[C@@H]4CC[C@H]([C@H](C)CCCC(C)C)[C@@]4(C)CC[C@@H]32)C1 [Compound in Example 41, cholesterol stearate]",5α-reductase inhibitory rate (%),sample concentration 10 μg/ml,26%
same,5α-reductase inhibitory rate (%),sample concentration 50 μg/ml,39%
"CC[C@H](/C=C/[C@@H](C)[C@H]1CC[C@H]2[C@@H]3CC=C4C[C@@H](O)CC[C@]4(C)[C@H]3CC[C@]12C)C(C)C [Compound in Example 42, Stigmasterol]",5α-reductase inhibitory rate (%),sample concentration 10 μg/ml,8%
same,5α-reductase inhibitory rate (%),sample concentration 50 μg/ml,24%
"CCCCCCCCCCCCCCCCCC(=O)O[C@H]1CC[C@@]2(C)C(=CC[C@H]3[C@@H]4CC[C@H]([C@H](C)/C=C/[C@@H](CC)C(C)C)[C@@]4(C)CC[C@@H]32)C1 [Compound in Example 43, Stigmasterol stearate]",5α-reductase inhibitory rate (%),sample concentration 10 μg/ml,31%
same,5α-reductase inhibitory rate (%),sample concentration 50 μg/ml,41%
"CC(C)[C@H](C)CC[C@@H](C)[C@H]1CC[C@H]2[C@@H]3CC=C4C[C@@H](O)CC[C@]4(C)[C@H]3CC[C@]12C [Compound in Example 44, Campesterol]",5α-reductase inhibitory rate (%),sample concentration 10 μg/ml,11%
same,5α-reductase inhibitory rate (%),sample concentration 50 μg/ml,21%
"CCCCCCCCCCCCCCCCCC(=O)O[C@H]1CC[C@@]2(C)C(=CC[C@H]3[C@@H]4CC[C@H]([C@H](C)CC[C@@H](C)C(C)C)[C@@]4(C)CC[C@@H]32)C1 [Compound in Example 45, Campesterol stearate]",5α-reductase inhibitory rate (%),sample concentration 10 μg/ml,26%
same,5α-reductase inhibitory rate (%),sample concentration 50 μg/ml,43%
"CC(C)[C@@H](C)/C=C/[C@@H](C)[C@H]1CC[C@H]2[C@@H]3CC=C4C[C@@H](O)CC[C@]4(C)[C@H]3CC[C@]12C [Compound in Example 46, brassicasterol]",5α-reductase inhibitory rate (%),sample concentration 10 μg/ml,8%
same,5α-reductase inhibitory rate (%),sample concentration 50 μg/ml,19%
"C/C=C(\CC[C@@H](C)[C@H]1CC[C@H]2[C@@H]3CC=C4C[C@@H](O)CC[C@]4(C)[C@H]3CC[C@]12C)C(C)C [Compound in Example 48, fucosterol]",5α-reductase inhibitory rate (%),sample concentration 10 μg/ml,12%
same,5α-reductase inhibitory rate (%),sample concentration 50 μg/ml,19%
